Measured values taken from BigSolDB 2.1.

CC(C)c1ncc[nH]1
solubility (mole fraction)
Conditions	in 2-butanone	in acetone	in acetonitrile	in ethanol	in ethyl acetate	in isopropanol	in methanol	in n-propanol	in toluene
278.15 K	0.11	0.0906	0.0259	0.189	0.0519	0.0738	0.224	0.0999	0.0215
280.65 K	0.116	0.0946	0.0275	0.196	0.0556	0.0768	0.233	0.104	0.0225
283.15 K	0.121	0.0988	0.0291	0.203	0.0588	0.0801	0.242	0.109	0.0237
285.65 K	0.127	0.103	0.0308	0.21	0.0626	0.0825	0.252	0.114	0.0248
288.15 K	0.133	0.108	0.0325	0.216	0.066	0.0856	0.263	0.117	0.026
290.65 K	0.139	0.111	0.0343	0.226	0.0697	0.0883	0.274	0.121	0.0272
293.15 K	0.145	0.116	0.0361	0.235	0.0737	0.0927	0.285	0.126	0.0287
295.65 K	0.152	0.121	0.0379	0.243	0.0778	0.0965	0.297	0.133	0.0302
298.15 K	0.159	0.127	0.0401	0.253	0.0826	0.101	0.31	0.139	0.0318
300.65 K	0.167	0.133	0.0427	0.263	0.0883	0.105	0.322	0.146	0.0336
303.15 K	0.177	0.14	0.0453	0.273	0.0939	0.11	0.334	0.153	0.0355
305.65 K	0.185	0.146	0.0481	0.282	0.0994	0.115	0.348	0.159	0.0374
308.15 K	0.194	0.153	0.0509	0.294	0.105	0.121	0.361	0.166	0.0394
310.65 K	0.203	0.159	0.0538	0.304	0.112	0.126	0.376	0.173	0.0416
313.15 K	0.213	0.166	0.0568	0.315	0.118	0.132	0.39	0.18	0.0437
